Assay results from patent US20220235073A1, “ARTEMISININ-DERIVATIVE N-HETEROCYCLIC CARBENE GOLD(I) HYBRID COMPLEXES” (CENTRE NATIONAL DE LA RECHERCHE SCIENTIFIQUE, priority 2019, published 2022).
pIC50: −log10 of the molar value.

Experiments:
[1] = system: PC-3 human prostate cancer cells; assay: Cell viability MTT assay, PC-3; assay type: cell-based; conditions: for GI50: 72 h, MTT assay
[2] = system: NIH3T3 murine fibroblast cells; assay: Cell viability MTT assay, NIH3T3; assay type: cell-based; conditions: for GI50: 72 h, MTT assay; for Selectivity index NIH3T3: SI = GI50 (non-cancer cell line NIH3T3)/GI50 (cancer cell line PC-3)
Description: (§1) HepG-2 human liver cancer cells were cultured in EMEM containing 10% of FBS, 1% of nonessential amino acids, 1 mM of Na-pyruvate, 1% of PenStrep antibiotics and 600 μg/mL of Geneticin. A549 human lung carcinoma cells, T24 human bladder carcinoma cells, MCF-7 human breast adenocarcinoma cells, U-2OS human osteosarcoma and NIH3T3 murine fibroblast cells were cultured in DMEM medium containing 10% fetal bovine serum and 1% antibiotics at 37° C. in 5% CO2 humidified incubators. MC3T3 mouse osteoblast cells were cultured in MEM medium containing 10% fetal bovine serum and 1% antibiotics at 37° C. in 5% CO2 humidified incubators. RWPE-1 human prostate normal cells were cultured in K-SFM medium containing 0.05 mg/ml bovine pituitary extract (BPE) and 5 ng/ml epidermal growth factor (EGF) at 37° C. in 5% CO2 humidified incubators. The MTT reagent (3-(4,5-dimethylthiazol-2-yl)-2,5-diphenyltetrazolium bromide) was used to determine cell death as originally described by Mosmaneland modified by Cuvillier et al.^[6] Briefly, cells were seeded 5,000 to 10,000 cells/well in 24-well plates depending on the cell type and allowed to attach overnight. All of the complexes were dissolved in DMSO. The concentration of the complexes was calculated according to the elemental composition of the complexes determined by the elemental analyses. Media in the presence of the tested complexes were added and serially diluted to various concentrations (from 5 μM to 0.01 μM). Next to these concentrations, for DHA 50, 20 and 10 μM and for the cationic bisNHC gold(I) complex 3 0.001 μM have been used. […] After 72 h of treatment, cells were incubated at 37° C. and 5% CO2 with 25 μL MTT solution (5 mg/mL; Sigma-Aldrich) in 24-well plates for approximately 3 to 4 h. After solubilization with 500 μL of lysis buffer (DMSO), formazan was quantified by spectrophotometry with a microplate reader at 570 nm absorbance. […] All the results were calculated from data obtained in three independent experiments.

[3] = system: RWPE-1 human prostate normal cells; assay: Cell viability MTT assay, RWPE-1; assay type: cell-based; conditions: for GI50: 72 h, MTT assay; for Selectivity index RWPE-1: SI = GI50 (RWPE-1)/GI50 (PC-3)
Description: as §1

[4] = system: MC3T3 mouse osteoblast cells; assay: Cell viability MTT assay, MC3T3; assay type: cell-based
Description: (§2) PC-3 human prostate cancer cells, and LAMA chronic myeloid leukemia were cultured in RPMI 1640 containing 10% fetal bovine serum and 1% antibiotics (100 U/mL penicillin and 100 μg/mL streotimycin) at 37° C. in 5% CO2 humidified incubators. HL60 […] were cultured in RPMI 1640 containing 15% fetal bovine serum and 1% antibiotics (100 U/mL penicillin and 100 μg/mL streotimycin) at 37° C. in 5% CO2 humidified incubators. HepG-2 human liver cancer cells were cultured in EMEM containing 10% of FBS, 1% of nonessential amino acids, 1 mM of Na-pyruvate, 1% of PenStrep antibiotics and 600 μg/mL of Geneticin. A549 human lung carcinoma cells, T24 human bladder carcinoma cells, MCF-7 human breast adenocarcinoma cells, U-2OS human osteosarcoma and NIH3T3 murine fibroblast cells were cultured in DMEM medium containing 10% fetal bovine serum and 1% antibiotics at 37° C. in 5% CO2 humidified incubators. MC3T3 mouse osteoblast cells were cultured in MEM medium containing 10% fetal bovine serum and 1% antibiotics at 37° C. in 5% CO2 humidified incubators. RWPE-1 human prostate normal cells were cultured in K-SFM medium containing 0.05 mg/ml bovine pituitary extract (BPE) and 5 ng/ml epidermal growth factor (EGF) at 37° C. in 5% CO2 humidified incubators. The MTT reagent (3-(4,5-dimethylthiazol-2-yl)-2,5-diphenyltetrazolium bromide) was used to determine cell death as originally described by Mosmaneland modified by Cuvillier et al.^[6] Briefly, cells were seeded 5,000 to 10,000 cells/well in 24-well plates depending on the cell type and allowed to attach overnight. All of the complexes were dissolved in DMSO. The concentration of the complexes was calculated according to the elemental composition of the complexes determined by the elemental analyses. Media in the presence of the tested complexes were added and serially diluted to various concentrations (from 5 μM to 0.01 μM). Next to these concentrations, for DHA 50, 20 and 10 μM and for the cationic bisNHC gold(I) complex 3 0.001 μM have been used. […] After 72 h of treatment, cells were incubated at 37° C. and 5% CO2 with 25 μL MTT solution (5 mg/mL; Sigma-Aldrich) in 24-well plates for approximately 3 to 4 h. After solubilization with 500 μL of lysis buffer (DMSO), formazan was quantified by spectrophotometry with a microplate reader at 570 nm absorbance. The GI50 values corresponding to the concentration that caused 50% inhibition of cell proliferation were calculated from dose-response curves obtained by nonlinear regression analysis (Prism 8, Graphpad Software). All the results were calculated from data obtained in three independent experiments.

[5] = system: A549 human lung carcinoma cells; assay: Cell viability MTT assay, A549; assay type: cell-based
Description: as §2

[6] = system: MCF-7 human breast adenocarcinoma cells; assay: Cell viability MTT assay, MCF-7; assay type: cell-based
Description: as §2

[7] = system: T24 human bladder carcinoma cells; assay: Cell viability MTT assay, T24; assay type: cell-based
Description: as §2

U-2OS human osteosarcoma = assay: Cell viability MTT assay, U-2OS; assay type: cell-based
Description: as §2

[8] = system: HepG-2 human liver cancer cells; assay: Cell viability MTT assay, HepG-2; assay type: cell-based; conditions: 72 h
Description: (§3) PC-3 human prostate cancer cells, and LAMA chronic myeloid leukemia were cultured in RPMI 1640 containing 10% fetal bovine serum and 1% antibiotics (100 U/mL penicillin and 100 μg/mL streotimycin) at 37° C. in 5% CO2 humidified incubators. HL60 […] were cultured in RPMI 1640 containing 15% fetal bovine serum and 1% antibiotics (100 U/mL penicillin and 100 μg/mL streotimycin) at 37° C. in 5% CO2 humidified incubators. HepG-2 human liver cancer cells were cultured in EMEM containing 10% of FBS, 1% of nonessential amino acids, 1 mM of Na-pyruvate, 1% of PenStrep antibiotics and 600 μg/mL of Geneticin. A549 human lung carcinoma cells, T24 human bladder carcinoma cells, MCF-7 human breast adenocarcinoma cells, U-2OS human osteosarcoma and NIH3T3 murine fibroblast cells were cultured in DMEM medium containing 10% fetal bovine serum and 1% antibiotics at 37° C. in 5% CO2 humidified incubators. MC3T3 mouse osteoblast cells were cultured in MEM medium containing 10% fetal bovine serum and 1% antibiotics at 37° C. in 5% CO2 humidified incubators. RWPE-1 human prostate normal cells were cultured in K-SFM medium containing 0.05 mg/ml bovine pituitary extract (BPE) and 5 ng/ml epidermal growth factor (EGF) at 37° C. in 5% CO2 humidified incubators. The MTT reagent (3-(4,5-dimethylthiazol-2-yl)-2,5-diphenyltetrazolium bromide) was used to determine cell death as originally described by Mosmaneland modified by Cuvillier et al.^[6] Briefly, cells were seeded 5,000 to 10,000 cells/well in 24-well plates depending on the cell type and allowed to attach overnight. All of the complexes were dissolved in DMSO. The concentration of the complexes was calculated according to the elemental composition of the complexes determined by the elemental analyses. […] After solubilization with 500 μL of lysis buffer (DMSO), formazan was quantified by spectrophotometry with a microplate reader at 570 nm absorbance. […] All the results were calculated from data obtained in three independent experiments.

[9] = system: LAMA chronic myeloid leukemia; assay: Cell viability MTT assay, LAMA; assay type: cell-based, human
Description: as §2

[10] = system: HL60 (acute myeloid leukemia); assay: Cell viability MTT assay, HL60; assay type: cell-based
Description: as §2

[11] = system: Non tumoral cell models (MC3-T3, NIH3T3, RWPE1); assay: MTT assay, mean over non tumoral cell models; assay type: cell-based; conditions: mean of MC3-T3, NIH3T3, RWPE1
Description: as §3

Tumor cell models = assay: MTT assay, panel of tumor cell models; assay type: cell-based, human; conditions: mean of PC-3, A549, U2OS, T24, MCF-7, LAMA, HL60
Description: as §3

[12] = system: NF-κB transcription factor induced by TNFalpha; assay: NF-kB transcriptional activity, NF-kB Reporter (Luc)-A549 stable cell line; assay type: cell-based, human; conditions: NF-kB Reporter A549 cells, 1 ng/ml TNFα, 7 hours; read-out: IC50, inhibition of NF-κB transcription factor induced by TNFalpha
Description: The NF-kB Reporter (Luc)—A549 Stable Cell Line was used to quantify the inhibitory effects of the indicated doses of the molecules of the invention on transcriptional activity of NF-kB activated by 1 ng/ml TNFα (7 hours of treatment).
Luminescence was read using a luminometer and readings were normalized to wells that only contain media to obtain the Relative Luminescence Units (RLUs).
9. NF-kB Transcriptional Activity

Nrf2 = assay: NRF2 transcriptional activity, ARE Reporter Hep G2 cell line; assay type: cell-based, human; conditions: ARE Reporter Hep G2 cells, 16 hours, any dose
Description: The ARE Reporter Hep G2 cell line containing a firefly luciferase gene under the control of ARE stably integrated into Hep G2 cells was used to quantify NRF2 transcriptional activity after 16 hours of treatment with the indicated doses of the different complexes. The results are shown as fold induction of ARE luciferase reporter expression. Dashed line indicates a fold induction of 1 (values >1 mean activation and values <1 mean inhibition).
ARE-reporter-HepG-2 cells were harvested from culture in Growth Medium 1K and they were seeded at a concentration of 40,000 cells/well into white clear-bottom 96-well microplate in 45 μL of Growth Medium 1K without Geneticin. Cells were allowed to attach overnight and then treated with different concentrations of complex 2a (from 0.01 μM to 20 μM), auranofin (from 0.01 μM to 20 μM) or DHA (from 0.01 μM to 3, 5, 10, 20 and 50 μM), and complex (from 0.01 μM to 20 μM). After incubation at 37° C. and 5% CO2 for 16 hours, ONE-Step luciferase assay reagent (100 μL) was added and rock at room temperature for over 15 minutes. Then the luminescence of each well was determined by CLARIOstar microplate reader to quantify induction of ARE. Three independent experiments were performed as biological triplicates. The results are in FIG. 4.

[13] = ratio of IC50, tumoral versus non tumoral cells of same tissue

## 3′-methyl-1′-[10β-(20-propoxy)dihydroartemisin]1H-imidazol-3-ium bromide [Compound 1a]
[1]
  GI50: > 20000 nM
[2]
  GI50: > 20000 nM
[3]
  GI50: > 20000 nM

## 3′-methyl-1′-[10β-(21-butoxy)dihydroartemisin]1H-imidazol-3-ium bromide [Compound 1b]
[1]
  GI50: > 20000 nM
[2]
  GI50: > 20000 nM
[3]
  GI50: > 20000 nM

## 3′-methyl-1′-[10β-(22-pentoxy)dihydroartemisin]1H-imidazol-3-ium bromide [Compound 1c]
[1]
  GI50: > 20000 nM
[2]
  GI50: > 20000 nM
[3]
  GI50: 3740 nM

## C[C@@H]1CCC2[C@@H](C)[C@@H](OCCCn3cc[n+](C)[c]3[Au-][c]3n(CCCO[C@H]4O[C@@H]5O[C@]6(C)CCC7[C@H](C)CCC([C@H]4C)[C@]75OO6)cc[n+]3C)O[C@@H]3O[C@]4(C)CCC1[C@@]23OO4.O=[N+]([O-])[O-] (some centres unmarked) [Compound 2a]
[1]
  GI50: 70 nM
[1]; Table 3, tumor cell model
  pIC50: 7.15
[2]
  GI50: 1130 nM
  Selectivity index NIH3T3: 16.1
[2]; Table 3, non tumoral cell model, read-out: IC50 NIH3T3 (fibroblasts)
  pIC50: 5.95
[4]; 72 h, MTT assay
  GI50: 1620 nM
[4]; SI = GI50 (MC3T3)/GI50 (PC-3)
  Selectivity index MC3T3: 23.1
[4]; Table 3, non tumoral cell model, read-out: IC50 MC3-T3 (osteoblasts)
  pIC50: 5.79
[4]; [13]
  Specificity Bone: MC3-T3 (normal immortalized)/U2OS (tumoral): 13.3
[3]
  GI50: 480 nM
  Selectivity index RWPE-1: 6.9
[3]; Table 3, non tumoral cell model, read-out: IC50 RWPE1 (prostatic epithelial cells)
  pIC50: 6.32
[3]; [13]
  Specificity Prostate: RWPE1 (normal immortalized)/PC-3 (tumoral): 6.9
[3]; ratio of SI
  SI PC-3/RPWE-1 value, times higher than Auranofin: 69 times
  SI PC-3/RPWE-1 value, times higher than complex 3: 35 times
[5]; 72 h, MTT assay
  GI50: 110 nM
[5]; Table 3, tumor cell model
  pIC50: 6.94
[6]; 72 h, MTT assay
  GI50: 90 nM
[6]; Table 3, tumor cell model
  pIC50: 7.05
[7]; 72 h, MTT assay
  GI50: 170 nM
[7]; Table 3, tumor cell model
  pIC50: 6.76
U-2OS human osteosarcoma; 72 h, MTT assay, read-out: GI50 U2OS
  GI50: 120 nM
U-2OS human osteosarcoma; Table 3, tumor cell model, read-out: IC50 U2OS (bone tumor)
  pIC50: 6.91
[8]
  GI50: 2430 nM
[9]; 72 h, MTT assay
  GI50: 80 nM
[9]; Table 3, tumor cell model
  pIC50: 7.10
[10]; 72 h, MTT assay
  GI50: 22 nM
[10]; Table 3, tumor cell model
  pIC50: 7.66
[11]
  pIC50: 5.97
Tumor cell models
  pIC50: 7.02
[12]
  pIC50: ~6.21

## C[C@@H]1CCC2[C@@H](C)[C@@H](OCCCCn3cc[n+](C)[c]3[Au-][c]3n(CCCCO[C@H]4O[C@@H]5O[C@]6(C)CCC7[C@H](C)CCC([C@H]4C)[C@]75OO6)cc[n+]3C)O[C@@H]3O[C@]4(C)CCC1[C@@]23OO4.[Cl-] (some centres unmarked) [Compound 2b]
[1]
  GI50: 42 nM
[2]
  GI50: 700 nM
  Selectivity index NIH3T3: 16.7
[3]
  GI50: 110 nM
  Selectivity index RWPE-1: 2.6

## CN1C=CN(c2ccc3ccccc3n2)[CH]1[Au-][CH]1N(C)C=CN1c1ccc2ccccc2n1 (centres unmarked) [Compound 3]
Nrf2
  Effect on activity of Nrf2: activate

## C[C@@H]1CC[C@H]2[C@@H](C)C(=O)O[C@@H]3O[C@@]4(C)CC[C@@H]1[C@]32OO4 [artemisinin]
Nrf2
  Effect on activity of Nrf2: activate
